The text below walks through data of US8247397B2, “Combinations of phosphoinositide 3-kinase inhibitor compounds and chemotherapeutic agents, and methods of use” (Genentech, Inc., priority 2007, dated 2012).

One may read the IC50 as the concentration needed to halve the response being measured.

The subject of data set [1] is PKC. To be noted: concentrations as high as 50 μM; cited from earlier work.
For data set [2], the system named is PKA. To be noted: concentrations as high as 50 μM; cited from earlier work.
Data set [3] has as its target T1, SGK (Homo sapiens, UniProt O00141).
T1 sequence (O00141 1-431): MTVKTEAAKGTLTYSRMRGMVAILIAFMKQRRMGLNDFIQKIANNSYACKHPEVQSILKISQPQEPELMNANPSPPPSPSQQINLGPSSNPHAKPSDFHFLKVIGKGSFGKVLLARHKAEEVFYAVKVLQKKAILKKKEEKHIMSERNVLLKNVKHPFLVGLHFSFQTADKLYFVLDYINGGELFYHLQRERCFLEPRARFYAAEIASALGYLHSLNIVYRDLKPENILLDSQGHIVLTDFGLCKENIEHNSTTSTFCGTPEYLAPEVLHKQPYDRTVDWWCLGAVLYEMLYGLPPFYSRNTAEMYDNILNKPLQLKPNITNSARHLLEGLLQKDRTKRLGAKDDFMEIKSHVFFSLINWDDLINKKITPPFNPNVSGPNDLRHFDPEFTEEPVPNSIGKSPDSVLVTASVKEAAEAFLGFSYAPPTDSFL
The conditions noted are these: concentrations as high as 50 μM; cited from earlier work.

For data set [4], the system named is MDA-MB-361.1 breast tumor cell xenografts. The data set can be described thus: In vivo tumor xenograft. Set-up: species or system mouse. To be noted: for tumor inhibition: docetaxel 5 mg/kg iv day 1, 5, 9. The protocol: (§1) The efficacy of the combinations of the invention may be measured in vivo by implanting allografts or xenografts of cancer cells in rodents and treating the tumor-bearing animals with the combinations. Variable results are to be expected depending on the cell line, the presence or absence of certain mutations in the tumor cells, the sequence of administration of Formula I or II compound and chemotherapeutic agent, dosing regimen, and other factors. Subject mice were treated with drug(s) or control (Vehicle) and monitored over several weeks or more to measure the time to tumor doubling, log cell kill, and tumor inhibition (Example 17).
(§2) Animals suitable for transgenic experiments can be obtained from standard commercial sources. Groups of female CD-1 nude mice (Charles River Laboratory) were implanted subcutaneously in the hind flank with 20 million MDA-MB-361.1 (PI3K mutant) breast cancer cells with matrigel and 0.36 mg of estrogen implants per mouse. Groups of female NMRI nu/nu mice (Janvier) were implanted with 150 mm3 fragments of MAXF 401 (Her2+/ER+/PR^+) or MAXF 1162 (Her2+/ER+/PR^+) primary breast tumors (biopsied directly from two individual breast cancer patients) with matrigel and 0.36 mg of estrogen pellets per mouse. Groups of female HRLN nu/nu (Harlan Labs) were implanted with 10 million MCF-7 (PI3K mutant) breast cancer cells with matrigel and 0.36 mg of estrogen pellets per mouse. Groups of female athymic nu/nu mice (Charles River Laboratory) were implanted with 15 million NCI-H2122 (K-Ras mutant) non-small cell lung cancer cells and matrigel per mouse. Mouse xenografts were dosed at day 1 with drug, drug combination, or vehicle according to the schedule specified for each tumor model. Docetaxel was administered intravenously, B20-1.4 was administered intraperitonealy and Formula Ia and IIa were delivered per os by oral gavage. Tumor sizes were recorded twice weekly over the course of the study. Mouse body weights were also recorded twice weekly, and the mice were observed regularly. Tumor volume was measured in two dimensions (length and width) using Ultra Cal-IV calipers (Model 54-10-111; Fred V. Fowler Co., Inc.; Newton, Mass.) and analyzed using Excel v.11.2 (Microsoft Corporation; Redmond, Wash.). Tumor inhibition graphs were plotted using KaleidaGraph, Version 3.6 (Synergy Software; Reading, Pa.). The tumor volume was calculated with formula: Tumor size (mm^3)=(longer measurement×shorter measurement^2)×0.5
(§3) The percent tumor growth inhibition (% INH) at the end of study (EOS) was calculated using formula: % INH=100×(EOS mean volume of tumors in animals given vehicle−EOS mean volume of tumors in animals given the drug)/EOS mean volume of tumors in animals given vehicle.
(§4) Tumor incidence (TI) was determined based on the number of measurable tumors remaining in each group at the end of the study. A partial response (PR) was defined as a>50% but <100% reduction in tumor volume, compared with the starting tumor volume, observed on any day of the study. A complete response (CR) was defined as a 100% reduction in tumor volume, compared with the initial tumor volume, observed on any day of the study. Data were analyzed and p-values were determined using the Dunnett's test with JMP statistical software, version 5.1.2 (SAS Institute; Cary, N.C.). Individual tumor volumes at end of study and mean tumor volume±SEM values were calculated using JMP statistical software, version 5.1.2. Body weight data were graphed based on the mean percentage of change from initial body weights±SEM.

Data set [5] deals with MAXF 1162 primary breast tumor explant xenografts. The data set can be described thus: In vivo tumor xenograft. The arrangement: species or system mouse. The conditions noted are these: after 49 days, docetaxel 15 mg/kg iv day 0, 11, 22, 44. The method, then: as §1, §2, §3, §4
Data set [6] deals with MCF-7 (PI3K mutant) breast tumor cell xenografts. The data set can be described thus: In vivo tumor xenograft. Set-up: species or system mouse. To be noted: after 21 days; for tumor inhibition: mB20-4.1 5 mg/kg ip twice a week 3 weeks. The method, then:
as §1, §2, §3, §4

The subject of data set [7] is MAXF 401 primary breast tumor explant xenografts. The data set can be described thus: In vivo tumor xenograft. Set-up: species or system mouse. The method, then:
as §1, §2, §3, §4

Data set [8] deals with NCI-H2122 non-small cell lung cancer (NSCLC) tumor xenografts. The data set can be described thus: In vivo tumor xenograft. To be noted: erlotinib 75 mg/kg. Set-up: species or system mouse. The protocol: as §1, §2, §3, §4
The nature of data set [9]: Oral bioavailability. The conditions noted are these: in vivo.
Data set [10] relates to K-ras-driven NSCLC tumors. The data set can be described thus: K-ras-driven NSCLC GEMM. It counts as in vivo, mouse. An excerpt: (§5) […]. Cancer Res. 12(18):5312-5328; US 2007/0292948, both of which are incorporated by reference in their entirety). The surprising and unexpected results from these experiments may predict the clinical response of certain patient populations having select tumor types and mutations to such combination therapy with Formula I and II compounds and chemotherapeutic agents.

In data set [11] the test system is pancreatic adenocarcinoma (PDAC) tumors. The data set can be described thus: Genetically engineered mouse model (GEMM) for pancreatic cancer. It counts as in vivo.
Excerpt: as §5
A GEMM for pancreatic cancer (Aguirre et al. (2003) Genes & Development 17:3112-3126) encompasses the mutations found in a majority of patients with this disease.

Data set [12] relates to small cell lung cancer (SCLC) tumors. In words: Genetically engineered mouse model (GEMM) for SCLC. Type of data set: in vivo.
Excerpt: as §5

The subject of data set [13] is pERK. To be noted: cited from earlier work.
The mark [14] stands for this setting: FIG. 23, after 21 days, Formula IIa 37.5 mg/kg oral daily 21 days.
Where [15] appears, read: FIG. 23, after 21 days, groups of 10 animals.
[16] abbreviates: FIG. 27, Formula IIa 100 mg/kg oral.
Where [17] appears, read: FIG. 25, day 28, Formula IIa 100 mg/kg oral day 0-3, 11-17, 21-28, docetaxel 15 mg/kg iv day 0 and 11.
Setting [18] is: FIG. 25, end of the study (day 50).
Setting [19] is: FIG. 22, after 21 days, CD-1 nude mice, Formula Ia 150 mg/kg oral daily 21 days.
Where [20] appears, read: FIG. 22, after 41 days, Formula Ia 150 mg/kg oral daily 21 days.
Where [21] appears, read: FIG. 22, after 41 days, groups of 11 (Formula Ia), 10 (docetaxel), 9 (combination) animals.
Setting [22] is: FIG. 26, Formula Ia 100 mg/kg oral.
The mark [23] stands for this setting: FIG. 24, day 28, NMRI nu/nu mice, Formula Ia 100 mg/kg oral day 0-4, 11-17, 21-28, docetaxel 15 mg/kg iv day 0 and 11.
[24] abbreviates: FIG. 24, end of the study (day 50).

As to `O=c1[nH]c2ccccc2n1C1CCN(Cc2ccc(-c3nc4cc5[nH]cnc5cc4nc3-c3ccccc3)cc2)CC1` [Akti-1/2, 1,3-dihydro-1-(1-((4-(6-phenyl-1H-imidazo[4,5-g]quinoxalin-7-yl)phenyl)methyl)-4-piperidinyl)-2H-benzimidazol-2-one], the inhibitory effect result in [1], in [2] and in data set [3] was “does not exhibit any inhibitory effect” in each case.
For the molecule `CS(=O)(=O)N1CCN(Cc2cc3c(N4CCOCC4)nc(-c4cccc5[nH]ncc45)nc3s2)CC1` [Formula IIa, 4-(2-(1H-indazol-4-yl)-6-((4-(methylsulfonyl)piperazin-1-yl)methyl)thieno[2,3-d]pyrimidin-4-yl)morpholine], the tumor inhibition in data set [4] (setting [14]) was 30%; in [5] (setting [16]), 32%; in data set [6] (FIG. 31, Formula IIa 100 mg/kg oral daily 21 days), 5%; in [7] (setting [17]), 82%; in data set [7] (setting [18]), 51%; in data set [8] (FIG. 29, end of study, Formula IIa 50 mg/kg, oral daily 14 days) it was 27%. Further, the partial regressions in data set [4] (setting [15]) was determined as 2; in data set [6] (FIG. 31), 0. Moreover, in [9], the oral bioavailability entry is recorded as “orally bioavailable”.
As for `CS(=O)(=O)N1CCN(Cc2cc3nc(-c4cccc5[nH]ncc45)nc(N4CCOCC4)c3s2)CC1` [Formula Ia, 4-(2-(1H-indazol-4-yl)-6-((4-(methylsulfonyl)piperazin-1-yl)methyl)thieno[3,2-d]pyrimidin-4-yl)morpholine], the tumor inhibition in data set [4] (setting [19]) amounted to 75%; in [4] (setting [20]), 66%; in [5] (setting [22]), 54%; in data set [6] (FIG. 30, HRLN nu/nu mice, Formula Ia 150 mg/kg oral daily 21 days) it was 36%; in data set [7] (setting [23]), 49%; in [7] (setting [24]), 10%. For the same molecule, in data set [8] (FIG. 28, after 20 days, Formula Ia 50 mg/kg, oral daily 16 days), the tumor inhibition is 17%. The figures for the partial regressions in data set [4] (setting [21]) and in [6] (FIG. 30) were 3 and 0, respectively. In addition, the survival result in [10] is on record as “no effect on survival”; in data set [11] it was “modest (not statistically significant) effect on survival”; in data set [12] it was “did have an effect (significant hazard ratio) on survival”. In addition, the “tumor growth as measured by microCT imaging” value in data set [10] is “minimally affected tumor growth”. Besides, in data set [9], the oral bioavailability entry was “orally bioavailable”. Further, the “tumor growth via ultrasound” value in [11] is listed as “initial decrease in tumor growth”. Also, the “tumor growth as assessed by microCT imaging” value in data set [12] is reported as “did not show effects on tumor growth”.
Turning to `Cc1c(CN2CCN(C(=O)[C@H](C)O)CC2)sc2c(N3CCOCC3)nc(-c3cnc(N)nc3)nc12` [Formula Ib, (S)-1-(4-((2-(2-aminopyrimidin-5-yl)-7-methyl-4-morpholinothieno[3,2-d]pyrimidin-6-yl)methyl)piperazin-1-yl)-2-hydroxypropan-1-one], the oral bioavailability entry in [9] is “orally bioavailable”.
For `OCCn1cc(-c2ccc3c(c2)CC/C3=N\O)c(-c2ccncc2)n1` [HPPD, 5-(1-(2-hydroxyethyl)-3-(pyridin-4-yl)-1H-pyrazol-4-yl)-2,3-dihydro-1H-inden-1-one oxime], the IC50 in data set [13] is 87 nM.
Consider “(2R,3S)-N-carboxy-3-phenylisoserine, N-tert-butyl ester, 13-ester with 5,20-epoxy-1,2,4,7,10,13-hexahydroxytax-11-en-9-one 4-acetate 2-benzoate, trihydrate [docetaxel, reference compound]”, for which the tumor inhibition in data set [4] (setting [19]) is 78%; in data set [4] (setting [20]), 26%; in [4] (setting [14]), 35%; in data set [5] (setting [22]) it was 36%; in data set [5] (setting [16]), 36%; in [7] (setting [23]) it was 95%. The tumor inhibition was 68% in [7] (setting [24]), 95% in [7] (setting [17]) and 68% in [7] (setting [18]). The partial regressions in [4] (setting [21]) was 2; in data set [4] (setting [15]), 3.
